In patent US12258329B2 (Merck Sharp & Dohme LLC, priority 2018, dated 2025):

system: infected PBMCs (VSV-G pseudotyped HIV virus VSV-G/pNLG1-P2A-ΔEnv); test: cells; format: cell-based, human; details: Homo sapiens, PBMC, read-out: TACK EC50

Compound	EC50 [nM]
Cc1nc(C)c(Cn2cnc(C(F)(F)C(F)(F)F)c(Oc3cc(C(F)F)cc(C#N)c3C)c2=O)c(=O)[nH]1 [Example 83]	252
Cc1nc(COc2ncccn2)[nH]c(=O)c1Cn1cnc(C(C)(F)F)c(Oc2cc(C(F)F)cc(C#N)c2C)c1=O [Example 25, 3-((4-(1,1-difluoroethyl)-1-((4-methyl-6-oxo-2-((pyrimidin-2-yloxy)methyl)-1,6-dihydropyrimidin-5-yl)methyl)-6-oxo-1,6-dihydropyrimidin-5-yl)oxy)-5-(difluoromethyl)-2-methylbenzonitrile]	353
CCc1nc(C)[nH]c(=O)c1Cn1cnc(C(F)(F)C(F)F)c(Oc2cc(C(F)F)cc(C#N)c2C)c1=O [Example 61, 5-(difluoromethyl)-3-((1-((4-ethyl-2-methyl-6-oxo-1,6-dihydropyrimidin-5-yl)methyl)-6-oxo-4-(1,1,2,2-tetrafluoroethyl)-1,6-dihydropyrimidin-5-yl)oxy)-2-methylbenzonitrile]	485
Cc1nc(C)c(Cn2cnc(C(F)(F)C(F)F)c(Oc3c(C)cc(C#N)cc3C3CC3)c2=O)c(=O)[nH]1 [Example 19, 3-cyclopropyl-4-((1-((2,4-dimethyl-6-oxo-1,6-dihydropyrimidin-5-yl)methyl)-6-oxo-4-(1,1,2,2-tetrafluoroethyl)-1,6-dihydropyrimidin-5-yl)oxy)-5-methylbenzonitrile]	315
COc1c(C#N)cc(C(F)F)cc1Oc1c(C(F)(F)C(F)F)ncn(Cc2c(C)nc(C)[nH]c2=O)c1=O [Example 10, 5-(difluoromethyl)-3-((1-((2,4-dimethyl-6-oxo-1,6-dihydropyrimidin-5-y1)methyl)-6-oxo-4-(1,1,2,2-tetrafluoroethyl)-1,6-dihydropyrimidin-5-y1)oxy)-2-methoxybenzonitrile]	146
Cc1c(C#N)cc(C(F)F)cc1Oc1c(C(F)(F)C(F)F)ncn(Cc2cnc(CCCO)[nH]c2=O)c1=O [Example 46, 5-(difluoromethyl)-3-((1-((2-(3-hydroxypropyl)-6-oxo-1,6-dihydropyrimidin-5-yl)methyl)-6-oxo-4-(1,1,2,2-tetrafluoroethyl)-1,6-dihydropyrimidin-5-yl)oxy)-2-methylbenzonitrile]	303
Cc1nc(N)c(Cn2cnc(C(C)(F)F)c(Oc3cc(Cl)cc(C#N)c3F)c2=O)c(=O)[nH]1 [Example 58, 3-((1-((4-amino-2-methyl-6-oxo-1,6-dihydropyrimidin-5-yl)methyl)-4-(1,1-difluoroethyl)-6-oxo-1,6-dihydropyrimidin-5-yl)oxy)-5-chloro-2-fluorobenzonitrile]	252
Cc1cc(C#N)c(C)c(Oc2c(Br)ncn(Cc3c(C)nc(C)[nH]c3=O)c2=O)c1 [Example 26, 3-((4-bromo-1-((2,4-dimethyl-6-oxo-1,6-dihydropyrimidin-5-yl)methyl)-6-oxo-1,6-dihydropyrimidin-5-yl)oxy)-2,5-dimethylbenzonitrile]	413
Cc1nc(C)c(Cn2cnc(C(F)(F)C(F)F)c(Oc3cc(Cl)cc(C#N)c3F)c2=O)c(=O)[nH]1 [Example 81, 5-chloro-3-((1-((2,4-dimethyl-6-oxo-1,6-dihydropyrimidin-5-yl)methyl)-6-oxo-4-(1,1,2,2-tetrafluoroethyl)-1,6-dihydropyrimidin-5-yl)oxy)-2-fluorobenzonitrile]	156
Cc1nc(CF)c(Cn2cnc(C(F)(F)C(F)(F)F)c(Oc3cc(C(F)F)cc(C#N)c3C)c2=O)c(=O)[nH]1 [Example 64, 5-(difluoromethyl)-3-((1-((4-(fluoromethyl)-2-methyl-6-oxo-1,6-dihydropyrimidin-5-yl)methyl)-6-oxo-4-(perfluoroethyl)-1,6-dihydropyrimidin-5-yl)oxy)-2-methylbenzonitrile]	162
Cc1ncc(Cn2cnc(C(F)(F)C(F)(F)F)c(Oc3cc(C(F)F)cc(C#N)c3C)c2=O)c(=O)[nH]1 [Example 67, 5-(difluoromethyl)-2-methyl-3-((1-((2-methyl-6-oxo-1,6-dihydropyrimidin-5-yl)methyl)-6-oxo-4-(perfluoroethyl)-1,6-dihydropyrimidin-5-yl)oxy)benzonitrile]	174
COc1c(C#N)cc(C(F)F)cc1Oc1c(C(C)(F)F)ncn(Cc2c(C)nc(C)[nH]c2=O)c1=O [Example 9, 3-((4-(1,1-difluoroethyl)-1-((2,4-dimethyl-6-oxo-1,6-dihydropyrimidin-5-y1)methyl)-6-oxo-1,6-dihydropyrimidin-5-yl)oxy)-5-(difluoromethyl)-2-methoxybenzonitrile]	287
Cc1cc(C#N)c(F)c(Oc2c(C(C)(F)F)ncn(Cc3c(C)nc(C)[nH]c3=O)c2=O)c1 [Example 41, 3-((4-(1,1-difluoroethyl)-1-((2,4-dimethyl-6-oxo-1,6-dihydropyrimidin-5-yl)methyl)-6-oxo-1,6-dihydropyrimidin-5-yl)oxy)-2-fluoro-5-methylbenzonitrile]	363
Cc1cc(C#N)c(Cl)c(Oc2c(C(F)(F)C(F)F)ncn(Cc3c(C)nc(C)[nH]c3=O)c2=O)c1 [Example 68, 2-chloro-3-((1-((2,4-dimethyl-6-oxo-1,6-dihydropyrimidin-5-yl)methyl)-6-oxo-4-(1,1,2,2-tetrafluoroethyl)-1,6-dihydropyrimidin-5-yl)oxy)-5-methylbenzonitrile]	478
Cc1nc(C)c(Cn2cnc(C(F)(F)F)c(Oc3c(C)cc(C#N)cc3C)c2=O)c(=O)[nH]1 [Example 77, 4-((1-((2,4-dimethyl-6-oxo-1,6-dihydropyrimidin-5-yl)methyl)-6-oxo-4-(trifluoromethyl)-1,6-dihydropyrimidin-5-yl)oxy)-3,5-dimethylbenzonitrile]	409
Cc1ncc(Cn2cnc(C(F)(F)C(F)F)c(Oc3cc(C(F)F)cc(C#N)c3C)c2=O)c(=O)[nH]1 [Example 70, 5-(difluoromethyl)-2-methyl-3-((1-((2-methyl-6-oxo-1,6-dihydropyrimidin-5-yl)methyl)-6-oxo-4-(1,1,2,2-tetra-fluoroethyl)-1,6-dihydropyrimidin-5-yl)oxy)benzonitrile]	203
COc1c(C#N)cc(C(F)F)cc1Oc1c(C(F)(F)C(F)F)ncn(Cc2cnc(C)[nH]c2=O)c1=O [Example 1, 5-(difluoromethyl)-2-methoxy-3-((1-((2-methyl-6-oxo-1,6-dihydropyrimidin-5-yl)methyl)-6-oxo-4-(1,1,2,2-tetrafluoroethyl)-1,6-dihydropyrimidin-5-yl)oxy)benzonitrile]	431
Cc1nc(C)c(Cn2cnc(C(C)(F)F)c(Oc3cc(C#N)cc(C(F)F)c3)c2=O)c(=O)[nH]1 [Example 23, 3-((4-(1,1-difluoroethyl)-1-((2,4-dimethyl-6-oxo-1,6-dihydropyrimidin-5-yl)methyl)-6-oxo-1,6-dihydropyrimidin-5-yl)oxy)-5-(difluoromethyl)benzonitrile]	429
Cc1nc(C)c(Cn2cnc(C(C)F)c(Oc3cc(Cl)cc(C#N)c3Cl)c2=O)c(=O)[nH]1 (single isomer, unassigned) [Example 34, (S) or (R)-2,5-dichloro-3-((1-((2,4-dimethyl-6-oxo-1,6-dihydropyrimidin-5-yl)methyl)-4-(1-fluoroethyl)-6-oxo-1,6-dihydropyrimidin-5-yl)oxy)benzonitrile]	474
Cc1nc(C)c(Cn2cnc(C(F)(F)C(F)(F)F)c(Oc3cc(C#N)cc(C(F)F)c3)c2=O)c(=O)[nH]1 [Example 84]	291
Cc1nc(C)c(Cn2cnc(C(C)(F)F)c(Oc3cc(Cl)cc(C#N)c3F)c2=O)c(=O)[nH]1 [Example 22, 5-Chloro-3-((4-(1,1-difluoroethyl)-1-((2,4-dimethyl-6-oxo-1,6-dihydropyrimidin-5-yl)methyl)-6-oxo-1,6-dihydropyrimidin-5-yl)oxy)-2-fluorobenzonitrile]	181
Cc1nc(C)c(Cn2cnc(C(F)(F)C(F)F)c(Oc3cc(C(F)F)cc(C#N)c3Cl)c2=O)c(=O)[nH]1 [Example 21, 2-chloro-5-(difluoromethyl)-3-((1-((2,4-dimethyl-6-oxo-1,6-dihydropyrimidin-5-yl)methyl)-6-oxo-4-(1,1,2,2-tetrafluoroethyl)-1,6-dihydropyrimidin-5-yl)oxy)benzonitrile]	132
Cc1c(C#N)cc(C(F)F)cc1Oc1c(C(F)(F)C(F)F)ncn(Cc2cnc(N)[nH]c2=O)c1=O [Example 57, 3-((1-((2-amino-6-oxo-1,6-dihydropyrimidin-5-yl)methyl)-6-oxo-4-(1,1,2,2-tetrafluoroethyl)-1,6-dihydropyrimidin-5-yl)oxy)-5-(difluoromethyl)-2-methylbenzonitrile]	493
COCCCc1nc(C)c(Cn2cnc(C(F)(F)C(F)(F)F)c(Oc3cc(Cl)cc(C#N)c3F)c2=O)c(=O)[nH]1 [Example 55, 5-chloro-2-fluoro-3-((1-((2-(3-methoxypropyl)-4-methyl-6-oxo-1,6-dihydropyrimidin-5-yl)methyl)-6-oxo-4-(perfluoroethyl)-1,6-dihydropyrimidin-5-yl)oxy)benzonitrile]	276

same assay, conditions: read-out: TACK EC50

Compound	EC50 [nM]
3-((4-(1, 1-difluoroethyl)-1-((2,4- dimethyl-6-oxo-1,6-dihydropyrimidin- 5-y1)methyl)-6-oxo-1,6- dihydropyrimidin-5-yl)oxy)-2,4,5- trifluorobenzonitrile [Example 14]	343
Cc1nc(C(C)O)[nH]c(=O)c1Cn1cnc(C(F)(F)C(F)F)c(Oc2cc(C(F)F)cc(C#N)c2C)c1=O (single isomer, unassigned) [Example 54, 5-(difluoromethyl)-3-((1-((2-(1-hydroxyethyl)-4-methyl-6-oxo-1,6-dihydropyrimidin-5-yl)methyl)-6-oxo-4-(1,1,2,2-tetrafluoroethyl)-1,6-dihydropyrimidin-5-yl)oxy)-2-methylbenzonitrile]	213
(S) or (R)-3,5-dichloro-4-((1-((2,4- dimethyl-6-oxo-1,6-dihydropyrimidin- 5-y1)methyl)-4-(1-fluoroethyl)-6-oxo- 1,6-dihydropyrimidin-5-yl)oxy) benzonitrile [Example 17]	282
Cc1nc(C)c(Cn2cnc(C(C)F)c(Oc3cc(C(F)F)cc(C#N)c3C)c2=O)c(=O)[nH]1 (single isomer, unassigned) [Example 29]	312
